{
  "source": "ChEMBL document CHEMBL6120946",
  "about": "“From Hit to Lead: Discovery of First-In-Class Furanone Glycoside D228 Derived from Chimonanthus salicifolius for the Treatment of Inflammatory Bowel Disease” (J Med Chem, 2024)",
  "key": {"[1]": {"tested_on": "Mus musculus", "experiment": "Antiinflammatory activity in DSS-induced male C57BL/6 mouse model of inflammatory bowel disease assessed as reduction of severe diarrhea at 15 to 60 mg/kg/day, po via gavage measured upto 14 days", "assay_type": "functional, organism-based", "details": "dose 15-60 mg/kg/day, time <= 14.0 day"}, "[2]": {"tested_on": "Mus musculus", "experiment": "Antiinflammatory activity in DSS-induced male C57BL/6 mouse model of inflammatory bowel disease assessed as increase in colon length at 20 mg/kg/day, ip measured after 14 days relative to control", "assay_type": "functional", "details": "time 14 day"}, "[3]": {"tested_on": "Mus musculus", "experiment": "Antiinflammatory activity in DSS-induced male C57BL/6 mouse model of inflammatory bowel disease assessed as downregulation of MyD88 expression at 50 to 200 microM/Kg by Western blot analysis", "assay_type": "functional, organism-based", "details": "dose 50-200 µM/Kg"}, "[4]": {"organism": "Mus musculus", "experiment": "Antiinflammatory activity in DSS-induced male C57BL/6 mouse model of inflammatory bowel disease assessed as reduction in MYD88 level", "assay_type": "functional, organism-based"}, "[5]": {"tested_on": "Mus musculus", "experiment": "Antiinflammatory activity in DSS-induced male C57BL/6 mouse model of inflammatory bowel disease assessed as upregulation of ZO-1 expression in colon at 50 to 200 microM/Kg by immunohistochemical analysis", "assay_type": "functional, organism-based", "details": "dose 50-200 µM/Kg"}, "[6]": {"experiment": "Toxicity in male Kunming mouse assessed as effect on […] level in serum at 100 to 500 mg/kg/day, po measured after 5 weeks", "assay_type": "organism-based", "details": "in vivo, 840 h, dose 100-500 mg/kg/day"}, "[7]": {"tested_on": "Mus musculus", "experiment": "Antiinflammatory activity in DSS-induced male C57BL/6 mouse model of inflammatory bowel disease assessed as reduction of bloody stool at 22.5 to 45 mg/kg/day, po via gavage measured upto 14 days", "assay_type": "functional, organism-based", "details": "dose 22.5-45 mg/kg/day, time <= 14.0 day"}, "[8]": {"tested_on": "Mus musculus", "experiment": "Antiinflammatory activity in DSS-induced male C57BL/6 mouse model of inflammatory bowel disease assessed as reduction in weight loss at 22.5 to 45 mg/kg/day, po via gavage measured upto 14 days", "assay_type": "functional, organism-based", "details": "dose 22.5-45 mg/kg/day, time <= 14.0 day"}, "[9]": {"experiment": "Toxicity in male Kunming mouse assessed as effect on liver at 100 to 500 mg/kg/day, po measured after 5 weeks by H and E staining based analysis", "assay_type": "organism-based", "details": "in vivo, 840 h, dose 100-500 mg/kg/day"}, "[10]": {"tested_on": "Mus musculus", "experiment": "Antiinflammatory activity in DSS-induced male C57BL/6 mouse model of inflammatory bowel disease assessed as amelioration of infiltration of inflammatory cells at 50 to 100 microM/Kg by H and E staining based analysis", "assay_type": "functional, organism-based", "details": "dose 50-100 µM/Kg"}, "[11]": {"experiment": "Toxicity in male Kunming mouse assessed as effect on CREA level in serum at 100 to 500 mg/kg/day, po measured after 5 weeks", "assay_type": "organism-based", "details": "in vivo, 840 h, dose 100-500 mg/kg/day"}, "[12]": {"experiment": "Toxicity in female Kunming mouse assessed as effect on body weight loss at 100 to 500 mg/kg/day, po measured after 5 weeks", "assay_type": "organism-based", "details": "in vivo, 840 h, dose 100-500 mg/kg/day"}, "[13]": {"experiment": "Toxicity in female Kunming mouse assessed as change in food intake at 100 to 500 mg/kg/day, po measured after 5 weeks", "assay_type": "organism-based", "details": "in vivo, 840 h, dose 100-500 mg/kg/day"}, "[14]": {"experiment": "Toxicity in female Kunming mouse assessed as effect on GGT level in serum at 100 to 500 mg/kg/day, po measured after 5 weeks", "assay_type": "organism-based", "details": "in vivo, 840 h, dose 100-500 mg/kg/day"}, "[15]": {"experiment": "Toxicity in female Kunming mouse assessed as effect on ABL level in serum at 100 to 500 mg/kg/day, po measured after 5 weeks", "assay_type": "organism-based", "details": "in vivo, 840 h, dose 100-500 mg/kg/day"}, "[16]": {"experiment": "Toxicity in female Kunming mouse assessed as effect on spleen at 100 to 500 mg/kg/day, po measured after 5 weeks by H and E staining based analysis", "assay_type": "organism-based", "details": "in vivo, 840 h, dose 100-500 mg/kg/day"}, "[17]": {"experiment": "Toxicity in male Kunming mouse assessed as effect on body weight loss at 100 to 500 mg/kg/day, po measured after 5 weeks", "assay_type": "organism-based", "details": "in vivo, 840 h, dose 100-500 mg/kg/day"}, "[18]": {"experiment": "Toxicity in male Kunming mouse assessed as effect on heart to body weight ratio at 100 to 500 mg/kg/day, po measured after 5 weeks", "assay_type": "organism-based", "details": "in vivo, 840 h, dose 100-500 mg/kg/day"}, "[19]": {"experiment": "Drug metabolism in mouse liver microsomes assessed as phoenicein formation measured after 5 mins in presence of NADPH by LC/MS/MS analysis", "assay_type": "ADME, Microsome"}, "[20]": {"tested_on": "Mus musculus", "experiment": "Antiinflammatory activity in DSS-induced male C57BL/6 mouse model assessed as inhibition of TNF-alpha level in colon at 50 to 100 microM/Kg", "assay_type": "functional, organism-based", "details": "dose 50-100 µM/Kg"}, "[21]": {"experiment": "Toxicity in male Kunming mouse assessed as effect on CK level in serum at 100 to 500 mg/kg/day, po measured after 5 weeks", "assay_type": "organism-based", "details": "in vivo, 840 h, dose 100-500 mg/kg/day"}, "[22]": {"experiment": "Acute toxicity in female Kunming mouse assessed as effect on body weight loss 5 g/Kg, po measured after 5 weeks", "assay_type": "organism-based", "details": "in vivo, 5000 mg/kg, 840 h"}, "[23]": {"experiment": "Metabolic stability in dog plasma assessed as half life at pH 7.4 measured upto 60 mins by HPLC-MS analysis", "assay_type": "ADME, cell-free, Canis lupus familiaris"}, "[24]": {"experiment": "Acute toxicity in male Kunming mouse assessed as effect on spleen 5 g/Kg, po measured after 5 weeks", "assay_type": "organism-based", "details": "in vivo, 5000 mg/kg, 840 h"}, "[25]": {"experiment": "Toxicity in female Kunming mouse assessed as effect on TP level in serum at 100 to 500 mg/kg/day, po measured after 5 weeks", "assay_type": "organism-based", "details": "in vivo, 840 h, dose 100-500 mg/kg/day"}, "[26]": {"experiment": "Acute toxicity in female Kunming mouse assessed as effect on heart 5 g/Kg, po measured after 5 weeks", "assay_type": "organism-based", "details": "in vivo, 5000 mg/kg, 840 h"}, "[27]": {"tested_on": "Mus musculus", "experiment": "Antiinflammatory activity in DSS-induced male C57BL/6 mouse model of inflammatory bowel disease assessed as reduction in diarrhea at 22.5 to 45 mg/kg/day, po via gavage measured upto 14 days", "assay_type": "functional, organism-based", "details": "dose 22.5-45 mg/kg/day, time <= 14.0 day"}, "[28]": {"experiment": "Acute toxicity in male Kunming mouse assessed as effect on kidney 5 g/Kg, po measured after 5 weeks", "assay_type": "organism-based", "details": "in vivo, 5000 mg/kg, 840 h"}, "[29]": {"tested_on": "Mus musculus", "experiment": "Antiinflammatory activity in DSS-induced male C57BL/6 mouse model assessed as effect on JNK phosphorylation level at 50 to 100 microM/Kg by Western blot analysis", "assay_type": "functional, organism-based", "details": "dose 50-100 µM/Kg"}, "[30]": {"experiment": "Toxicity in female Kunming mouse assessed as effect on kidney to body weight ratio at 100 to 500 mg/kg/day, po measured after 5 weeks", "assay_type": "organism-based", "details": "in vivo, 840 h, dose 100-500 mg/kg/day"}, "[31]": {"experiment": "Acute toxicity in male Kunming mouse assessed as effect on liver 5 g/Kg, po measured after 5 weeks", "assay_type": "organism-based", "details": "in vivo, 5000 mg/kg, 840 h"}, "[32]": {"experiment": "Acute toxicity in female Kunming mouse assessed as effect on spleen 5 g/Kg, po measured after 5 weeks", "assay_type": "organism-based", "details": "in vivo, 5000 mg/kg, 840 h"}},
  "note": "Activity calls are given as the source filed them. No cut-off for these calls is given here.",
  "data": [
    {"smiles": "CC(C)=C1OC(C)=C(O[C@@H]2O[C@H](CO)[C@@H](O)[C@H](O)[C@H]2O)C1=O", "values": [
      {"measurement": "Activity", "setting": "[1]", "result": "Active"},
      {"measurement": "Activity", "setting": "[2]", "result": 47.4, "unit": "%"},
      {"measurement": "Activity", "setting": "[3]", "result": "Active"},
      {"measurement": "Activity", "setting": "[4]", "result": "Active"},
      {"measurement": "Activity", "setting": "[5]", "result": "Active"}
    ]},
    {"smiles": "CC(=O)OC[C@H]1O[C@@H](OC2=C(C)OC(=C(C)C)C2=O)[C@H](OC(C)=O)[C@@H](OC(C)=O)[C@@H]1OC(C)=O", "values": [
      {"measurement": "Activity", "setting": "[6]", "result": "Non-toxic"},
      {"measurement": "Activity", "setting": "[7]", "result": "Active"},
      {"measurement": "Activity", "setting": "[8]", "result": "Active"},
      {"measurement": "Activity", "setting": "[9]", "result": "Non-toxic"},
      {"measurement": "Activity", "setting": "[10]", "result": "Active"},
      {"measurement": "Activity", "setting": "[11]", "result": "Non-toxic"},
      {"measurement": "Activity", "setting": "[12]", "result": "Non-toxic"},
      {"measurement": "Activity", "setting": "[13]", "result": "Non-toxic"},
      {"measurement": "Activity", "setting": "[14]", "result": "Non-toxic"},
      {"measurement": "Activity", "setting": "[15]", "result": "Non-toxic"},
      {"measurement": "Activity", "setting": "[16]", "result": "Non-toxic"},
      {"measurement": "Activity", "setting": "[17]", "result": "Non-toxic"},
      {"measurement": "Activity", "setting": "[18]", "result": "Non-toxic"},
      {"measurement": "Drug metabolism", "setting": "[19]", "result": "metabolite_detected"},
      {"measurement": "Activity", "setting": "[20]", "result": "Active"},
      {"measurement": "Activity", "setting": "[21]", "result": "Non-toxic"},
      {"measurement": "Activity", "setting": "[22]", "result": "Non-toxic"},
      {"measurement": "half-life", "setting": "[23]", "result": 32.5, "unit": "min"},
      {"measurement": "Activity", "setting": "[24]", "result": "Non-toxic"},
      {"measurement": "Activity", "setting": "[25]", "result": "Non-toxic"},
      {"measurement": "Activity", "setting": "[26]", "result": "Non-toxic"},
      {"measurement": "Activity", "setting": "[27]", "result": "Active"},
      {"measurement": "Activity", "setting": "[28]", "result": "Non-toxic"},
      {"measurement": "Activity", "setting": "[29]", "result": "inactive"},
      {"measurement": "Activity", "setting": "[30]", "result": "Non-toxic"},
      {"measurement": "Activity", "setting": "[31]", "result": "Non-toxic"},
      {"measurement": "Activity", "setting": "[32]", "result": "Non-toxic"}
    ]}
  ]
}
